Measured values: patent US9884832B2 (priority 2011, dated 2018)
Where two headings read alike, the source gives them in different places.

How the values were obtained:
[1] = molecular target: AM2 S31N (serine→asparagine mutation at residue 31 in the M2 protein) (Influenza A virus, UniProt P0DOF5, S31N); assay type: cell-based, influenza virus A/Udorn/72
[2] = molecular target: AM2 V27A (valine→alanine mutation at residue 27 in the M2 protein) (Influenza A virus, UniProt P0DOF5, V27A); assay type: cell-based, influenza virus A/Udorn/72

| Structure (SMILES) | S31N OOcyte Inhibition at 100 uM (%) [1] | other results |
| --- | --- | --- |
| c1ncc(CCNCC23CC4CC(CC(C4)C2)C3)[nH]1 [Example 1, Adamantan-1-ylmethyl-[2-(3H-imidazol-4-yl)-ethyl]-amine] |  | S31N OOcyte Inhibition at 100 uM (%) ([1]; pH 5.5): B (key: (A)=31-95%; (B)=0-30%); V27A OOcyte Inhibition at 100 uM (%) ([2]; pH 5.5): B (key: (A)=31-95%; (B)=0-30%) |
| CCOc1ccc(CNC23CC4CC(CC(C4)C2)C3)cc1 [Example 1a, Adamantan-1-yl-(4-ethoxy-benzyl)-amine] | A (key: (A)=31-95%; (B)=0-30%) | V27A OOcyte Inhibition at 100 uM (%) [2]: B (key: (A)=31-95%; (B)=0-30%) |
| OCC(Cc1cnc[nH]1)NCC12CC3CC(CC(C3)C1)C2 (centres unmarked) [Example 2, 2-[(adamantan-1-ylmethyl)-amino]-3-(3H-imidazol-4-yl)-propan-1-ol] |  | S31N OOcyte Inhibition at 100 uM (%) ([1]; pH 5.5): B (key: (A)=31-95%; (B)=0-30%); V27A OOcyte Inhibition at 100 uM (%) ([2]; pH 5.5): B (key: (A)=31-95%; (B)=0-30%) |
| F[B-](F)(F)c1ccc(CNC23CC4CC(CC(C4)C2)C3)cc1.[K+] [Example 2a] | B (key: (A)=31-95%; (B)=0-30%) | V27A OOcyte Inhibition at 100 uM (%) [2]: A (key: (A)=31-95%; (B)=0-30%) |
| COC(=O)C(Cc1cnc[nH]1)NCC12CC3CC(CC(C3)C1)C2 (centres unmarked) [Example 3, 2-[(Adamantan-1-ylmethyl)-amino]-3-(3H-imidazol-4-yl)-propionic acid methyl ester] |  | S31N OOcyte Inhibition at 100 uM (%) ([1]; pH 5.5): B (key: (A)=31-95%; (B)=0-30%); V27A OOcyte Inhibition at 100 uM (%) ([2]; pH 5.5): B (key: (A)=31-95%; (B)=0-30%) |
| Cc1ccc(-c2nc(CNC34CC5CC(CC(C5)C3)C4)no2)cc1 [Example 128a, N-((5-(p-tolyl)-1,2,4-oxadiazol-3-yl)methyl)adamantan-1-amine] | A (key: (A)=31-95%; (B)=0-30%) |  |
| FC(F)(F)c1ccc(-c2nc(CNC34CC5CC(CC(C5)C3)C4)no2)cc1 [Example 129a, N-((5-(4-(trifluoromethyl)phenyl)-1,2,4-oxadiazol-3-yl)methyl)adamantan-1-amine] | A (key: (A)=31-95%; (B)=0-30%) |  |
| FC(F)(F)c1cccc(-c2nc(CNC34CC5CC(CC(C5)C3)C4)no2)c1 [Example 130a, N-((5-(3-(trifluoromethyl)phenyl)-1,2,4-oxadiazol-3-yl)methyl)adamantan-1-amine] | A (key: (A)=31-95%; (B)=0-30%) |  |
| c1ccc(-c2nc(CNC34CC5CC(CC(C5)C3)C4)no2)cc1 [Example 131a, N-((5-phenyl-1,2,4-oxadiazol-3-yl)methyl)adamantan-1-amine] | A (key: (A)=31-95%; (B)=0-30%) |  |
| c1ccc(-c2nc(CNC34CC5CC(CC(C5)C3)C4)cs2)cc1 [Example 132a, N-((2-phenylthiazol-4-yl)methyl)adamantan-1-amine] | B (key: (A)=31-95%; (B)=0-30%) |  |
| c1cncc(-c2noc(CNC34CC5CC(CC(C5)C3)C4)n2)c1 [Example 135a, Adamantan-1-yl-(3-pyridin-3-yl-[1,2,4]oxadiazol-5-ylmethyl)-amine] | A (key: (A)=31-95%; (B)=0-30%) |  |
| c1csc(-c2ccc(CNC34CC5CC(CC(C5)C3)C4)o2)c1 [Example 138a, Adamantan-1-yl-(5-thiophen-2-yl-furan-2-ylmethyl)-amine] | A (key: (A)=31-95%; (B)=0-30%) |  |
| Cc1oc(-c2cccs2)nc1CNC12CC3CC(CC(C3)C1)C2 [Example 145a, N-((5-methyl-2-(thiophen-2-yl)oxazol-4-yl)methyl)adamantan-1-amine] | B (key: (A)=31-95%; (B)=0-30%) |  |
| c1csc(-c2nc(CNC34CC5CC(CC(C5)C3)C4)no2)c1 [Example 146a, N-((5-(thiophen-2-yl)-1,2,4-oxadiazol-3-yl)methyl)adamantan-1-amine] | A (key: (A)=31-95%; (B)=0-30%) |  |
| c1csc(-c2nnc(CNC34CC5CC(CC(C5)C3)C4)o2)c1 [Example 147a, Adamantan-1-yl-(5-thiophen-2-yl-[1,3,4]oxadiazol-2-ylmethyl)-amine] | A (key: (A)=31-95%; (B)=0-30%) |  |
| c1csc(-c2noc(CNC34CC5CC(CC(C5)C3)C4)n2)c1 [Example 148a, N-((3-(thiophen-2-yl)-1,2,4-oxadiazol-5-yl)methyl)adamantan-1-amine] | A (key: (A)=31-95%; (B)=0-30%) |  |
| c1csc(-c2cc(CNC34CC5CC(CC(C5)C3)C4)on2)c1 [Example 149a, N-((3-(thiophen-2-yl)isoxazol-5-yl)methyl)adamantan-1-amine] | A (key: (A)=31-95%; (B)=0-30%) |  |
| c1cc(-c2cc(CNC34CC5CC(CC(C5)C3)C4)no2)cs1 [Example 150a, Adamantan-1-yl-(5-thiophen-3-yl-isoxazol-3-ylmethyl)-amine] | A (key: (A)=31-95%; (B)=0-30%) |  |
| c1csc(-c2nnc(CNC34CC5CC(CC(C5)C3)C4)s2)c1 [Example 151a, N-((5-(thiophen-2-yl)-1,3,4-thiadiazol-2-yl)methyl)adamantan-1-amine] | A (key: (A)=31-95%; (B)=0-30%) |  |
| c1coc(-c2nc(CNC34CC5CC(CC(C5)C3)C4)no2)c1 [Example 160a, N-((5-(furan-2-yl)-1,2,4-oxadiazol-3-yl)methyl)adamantan-1-amine] | A (key: (A)=31-95%; (B)=0-30%) |  |
| c1cn(-c2ccc(CNC34CC5CC(CC(C5)C3)C4)s2)cn1 [Example 161a, N-((5-(1H-imidazol-1-yl)thiophen-2-yl)methyl)adamantan-1-amine] | B (key: (A)=31-95%; (B)=0-30%) |  |

| Structure (SMILES) | S31N OOcyte Inhibition at 100 uM (%) [1] | other results |
| --- | --- | --- |
| Fc1ccc(-c2nc(CNC34CC5CC(CC(C5)C3)C4)no2)cc1 [Example 163a] | A (key: (A)=31-95%; (B)=0-30%) |  |
| c1ccc(-c2cc(CNC34CC5CC(CC(C5)C3)C4)on2)cc1 [Example 164a] | A (key: (A)=31-95%; (B)=0-30%) |  |
| CCc1nc(CNC23CC4CC(CC(C4)C2)C3)no1 [Example 165a] | A (key: (A)=31-95%; (B)=0-30%) |  |
| C(NC12CC3CC(CC(C3)C1)C2)c1noc(C2CC2)n1 [Example 166a] | A (key: (A)=31-95%; (B)=0-30%) |  |
| c1ccc(C2=NOC(CNC34CC5CC(CC(C5)C3)C4)C2)cc1 (centres unmarked) [Example 167a, N-((3-phenyl-4,5-dihydroisoxazol-5-yl)methyl)adamantan-1-amine] | A (key: (A)=31-95%; (B)=0-30%) |  |
| c1csc(C2=NOC(CNC34CC5CC(CC(C5)C3)C4)C2)c1 (centres unmarked) [Example 168a, N-((3-(thiophen-2-yl)-4,5-dihydroisoxazol-5-yl)methyl)adamantan-1-amine] | A (key: (A)=31-95%; (B)=0-30%) |  |
| Clc1cc2cc(CNC34CC5CC(CC(C5)C3)C4)sc2s1 [Example 173a, Adamantan-1-yl-(5-chloro-thieno[2,3-b]thiophen-2-ylmethyl)-amine] | A (key: (A)=31-95%; (B)=0-30%) |  |
| Cn1c(CNC23CC4CC(CC(C4)C2)C3)nc2ccccc21 [Example 180a, Adamantan-1-yl-(1-methyl-1H-benzoimidazol-2-ylmethyl)-amine] | B (key: (A)=31-95%; (B)=0-30%) |  |
| Clc1ccc2[nH]c(CNC34CC5CC(CC(C5)C3)C4)nc2c1 [Example 181a, Adamantan-1-yl-(5-chloro-1H-benzoimidazol-2-ylmethyl)-amine] | A (key: (A)=31-95%; (B)=0-30%) |  |
| COc1ccc2[nH]c(CNC34CC5CC(CC(C5)C3)C4)cc2c1 [Example 182a] | A (key: (A)=31-95%; (B)=0-30%) |  |
| Clc1cccc2cc(CNC34CC5CC(CC(C5)C3)C4)sc12 [Example 183a, Adamantan-1-yl-(7-chloro-benzo[b]thiophen-2-ylmethyl)-amine] | B (key: (A)=31-95%; (B)=0-30%) |  |
| Cc1cccc2nc(CNC34CC5CC(CC(C5)C3)C4)[nH]c12 [Example 184a, Adamantan-1-yl-(7-methyl-1H-benzoimidazol-2-ylmethyl)-amine] | A (key: (A)=31-95%; (B)=0-30%) |  |
| OC12CC3CC(C1)CC(NCc1ccc(Cl)s1)(C3)C2 [Example 189a, 3-[(5-Chloro-thiophen-2-ylmethyl)-amino]adamantan-1-ol] | B (key: (A)=31-95%; (B)=0-30%) |  |
| COC(=O)c1ccc(-c2ccc(CNC34CC5CC(CC(O)(C5)C3)C4)cc2)cc1 [Example 190a, 4′-[(3-Hydroxy-adamantan-1-ylamino)-methyl]-biphenyl-4-carboxylic acid methyl ester] | A (key: (A)=31-95%; (B)=0-30%) |  |
| OC12CC3CC(C1)CC(NCc1cc4sccc4s1)(C3)C2 [Example 192a, 3-[(Thieno[3,2-b]thiophen-2-ylmethyl)-amino]-adamantan-1-ol] | A (key: (A)=31-95%; (B)=0-30%) |  |
| C[Si](C)(C)c1ccc(CNC23CC4CC(CC(O)(C4)C2)C3)cc1 [Example 193a, (1s,3r,5R,7S)-3-((4-(trimethylsilyl)benzyl)amino)adamantan-1-ol] | A (key: (A)=31-95%; (B)=0-30%) |  |
| OC12CC3CC(C1)CC(NCc1cc(-c4ccccc4)on1)(C3)C2 [Example 194a, (1s,3r,5R,7S)-3-(((5-phenylisoxazol-3-yl)methyl)amino)adamantan-1-ol] | A (key: (A)=31-95%; (B)=0-30%) |  |
| OC12CC3CC(C1)CC(NCc1cc4cc(Br)sc4s1)(C3)C2 [Example 195a, 3-[(5-Bromo-thieno[2,3-b]thiophen-2-ylmethyl)-amino]-adamantan-1-ol] | A (key: (A)=31-95%; (B)=0-30%) |  |
| Oc1ccc(CNC23CC4CC(CC(O)(C4)C2)C3)c(O)c1 [Example 196a, 4-[(3-Hydroxy-adamantan-1-ylamino)-methyl]-benzene-1,3-diol] | A (key: (A)=31-95%; (B)=0-30%) |  |
| COc1ccc2nc(CN(Cc3nc4ccc(OC)cc4[nH]3)C34CC5CC(CC(C5)C3)C4)[nH]c2c1 [Example 201a, Adamantan-1-yl-bis-(6-methoxy-1H-benzoimidazol-2-ylmethyl)-amine] | B (key: (A)=31-95%; (B)=0-30%) |  |
| Cc1ncc(CN(Cc2cnc(C)s2)C23CC4CC(CC(C4)C2)C3)s1 [Example 202a, N,N-bis((2-methylthiazol-5-yl)methyl)adamantan-1-amine] | B (key: (A)=31-95%; (B)=0-30%) |  |
